Data: the kinase profiling compilation of Christmann-Franck et al. (2016)

How the values were obtained:
Assay in all cases: radiometric filter-binding kinase assay
[1] = test system: AKT1 (human), P31749 [S473D]
[2] = biological target: BRSK2 (human) (UniProt Q8IWQ3)
[3] = biological target: CLK2 (human) (UniProt P49760); conditions: compound 10.0 µM
[4] = biological target: CSNK2A1 (human) (UniProt P68400)
[5] = biological target: DAPK1 (human) (UniProt P53355); conditions: compound 10.0 µM
[6] = biological target: DYRK1A (human) (UniProt Q13627)
[7] = biological target: DYRK3 (human) (UniProt O43781)
[8] = biological target: EPHB3 (human) (UniProt P54753); conditions: compound 10.0 µM
[9] = biological target: IKBKB (human) (UniProt O14920)
[10] = biological target: IKBKE (human) (UniProt Q14164); conditions: compound 10.0 µM
[11] = biological target: IRAK4 (human) (UniProt Q9NWZ3); conditions: compound 10.0 µM
[12] = biological target: MAP2K6 (human) (UniProt P52564); conditions: compound 10.0 µM
[13] = biological target: MAP3K11 (human) (UniProt Q16584); conditions: compound 10.0 µM
[14] = biological target: MAP3K7 TAB1 (human) (UniProt Q15750+O43318); conditions: compound 10.0 µM
[15] = biological target: MAPK11 (human) (UniProt Q15759)
Sequence of MAPK11 (human) (Q15759 whole entry, looked up): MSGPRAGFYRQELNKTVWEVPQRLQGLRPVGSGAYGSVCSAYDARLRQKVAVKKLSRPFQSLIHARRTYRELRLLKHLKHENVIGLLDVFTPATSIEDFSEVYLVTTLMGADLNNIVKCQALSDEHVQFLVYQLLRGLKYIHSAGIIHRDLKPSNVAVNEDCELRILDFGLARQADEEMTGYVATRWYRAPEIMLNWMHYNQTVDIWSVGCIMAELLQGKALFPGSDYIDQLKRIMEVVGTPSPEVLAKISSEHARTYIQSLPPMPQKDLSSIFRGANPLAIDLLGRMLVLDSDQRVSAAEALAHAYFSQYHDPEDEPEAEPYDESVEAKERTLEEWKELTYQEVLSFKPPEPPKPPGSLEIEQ

[16] = biological target: MAPK12 (human) (UniProt P53778)
Sequence of MAPK12 (human) (P53778 whole entry, looked up): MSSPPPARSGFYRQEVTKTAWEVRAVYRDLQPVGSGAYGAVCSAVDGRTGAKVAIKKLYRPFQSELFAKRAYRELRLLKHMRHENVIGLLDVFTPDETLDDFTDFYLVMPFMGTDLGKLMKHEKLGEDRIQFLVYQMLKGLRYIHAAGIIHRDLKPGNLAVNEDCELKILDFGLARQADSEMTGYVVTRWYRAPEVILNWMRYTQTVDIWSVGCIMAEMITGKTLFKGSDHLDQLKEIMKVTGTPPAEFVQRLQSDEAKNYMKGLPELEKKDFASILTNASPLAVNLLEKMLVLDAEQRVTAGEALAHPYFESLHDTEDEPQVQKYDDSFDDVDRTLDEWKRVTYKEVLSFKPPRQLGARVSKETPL

[17] = biological target: MAPK14 (human) (UniProt Q16539)
[18] = biological target: MAPK3 (human) (UniProt P27361)
Sequence of MAPK3 (human) (P27361 whole entry, looked up): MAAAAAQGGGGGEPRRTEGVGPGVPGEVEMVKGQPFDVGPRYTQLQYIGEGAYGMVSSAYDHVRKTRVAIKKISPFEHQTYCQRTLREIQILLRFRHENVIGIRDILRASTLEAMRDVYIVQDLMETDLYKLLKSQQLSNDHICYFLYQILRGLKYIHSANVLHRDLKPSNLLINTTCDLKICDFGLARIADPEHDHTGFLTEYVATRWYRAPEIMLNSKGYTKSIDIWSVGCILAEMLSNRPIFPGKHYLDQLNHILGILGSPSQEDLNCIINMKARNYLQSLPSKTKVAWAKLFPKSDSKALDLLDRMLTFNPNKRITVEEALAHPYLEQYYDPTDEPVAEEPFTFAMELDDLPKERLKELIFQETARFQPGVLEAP

[19] = biological target: MAPK8 (human) (UniProt P45983)
[20] = biological target: MAPKAPK3 (human) (UniProt Q16644)
Sequence of MAPKAPK3 (human) (Q16644 whole entry, looked up): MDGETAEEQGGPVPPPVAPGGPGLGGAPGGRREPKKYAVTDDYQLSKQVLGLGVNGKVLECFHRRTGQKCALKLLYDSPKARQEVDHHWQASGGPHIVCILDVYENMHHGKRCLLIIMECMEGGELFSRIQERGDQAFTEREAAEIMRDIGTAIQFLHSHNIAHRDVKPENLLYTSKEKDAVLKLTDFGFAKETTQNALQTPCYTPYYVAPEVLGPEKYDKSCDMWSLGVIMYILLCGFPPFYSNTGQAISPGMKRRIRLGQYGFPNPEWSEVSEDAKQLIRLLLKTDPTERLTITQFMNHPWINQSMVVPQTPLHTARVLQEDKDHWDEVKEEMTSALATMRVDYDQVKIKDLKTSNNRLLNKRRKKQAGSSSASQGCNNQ

[21] = biological target: MAPKAPK5 (human) (UniProt Q8IW41)
[22] = biological target: MKNK2 (human) (UniProt Q9HBH9)
[23] = biological target: NTRK1 (human) (UniProt P04629); conditions: compound 10.0 µM
[24] = biological target: PAK4 (human) (UniProt O96013)
[25] = biological target: PIM1 (human) (UniProt P11309)
Sequence of PIM1 (human) (P11309 whole entry, looked up): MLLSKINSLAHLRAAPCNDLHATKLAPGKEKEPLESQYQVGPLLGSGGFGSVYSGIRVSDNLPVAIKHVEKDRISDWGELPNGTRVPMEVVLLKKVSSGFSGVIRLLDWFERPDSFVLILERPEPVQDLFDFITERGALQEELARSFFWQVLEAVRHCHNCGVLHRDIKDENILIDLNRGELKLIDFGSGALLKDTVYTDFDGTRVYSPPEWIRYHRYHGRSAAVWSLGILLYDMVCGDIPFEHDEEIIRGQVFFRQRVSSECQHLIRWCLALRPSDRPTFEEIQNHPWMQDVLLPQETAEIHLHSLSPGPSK

[26] = biological target: PIM2 (human) (UniProt Q9P1W9)
Sequence of PIM2 (human) (Q9P1W9 whole entry, looked up): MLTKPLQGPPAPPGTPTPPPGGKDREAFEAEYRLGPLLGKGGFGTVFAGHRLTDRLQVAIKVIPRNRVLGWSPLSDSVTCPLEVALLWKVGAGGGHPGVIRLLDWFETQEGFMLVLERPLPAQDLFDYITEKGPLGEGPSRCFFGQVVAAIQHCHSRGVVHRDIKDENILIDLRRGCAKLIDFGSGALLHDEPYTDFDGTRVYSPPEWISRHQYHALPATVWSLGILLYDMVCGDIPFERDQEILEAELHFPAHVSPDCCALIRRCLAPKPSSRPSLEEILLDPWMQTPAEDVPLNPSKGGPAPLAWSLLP

[27] = biological target: PIM3 (human) (UniProt Q86V86)
[28] = biological target: PLK1 (human) (UniProt P53350)
Sequence of PLK1 (human) (P53350 whole entry, looked up): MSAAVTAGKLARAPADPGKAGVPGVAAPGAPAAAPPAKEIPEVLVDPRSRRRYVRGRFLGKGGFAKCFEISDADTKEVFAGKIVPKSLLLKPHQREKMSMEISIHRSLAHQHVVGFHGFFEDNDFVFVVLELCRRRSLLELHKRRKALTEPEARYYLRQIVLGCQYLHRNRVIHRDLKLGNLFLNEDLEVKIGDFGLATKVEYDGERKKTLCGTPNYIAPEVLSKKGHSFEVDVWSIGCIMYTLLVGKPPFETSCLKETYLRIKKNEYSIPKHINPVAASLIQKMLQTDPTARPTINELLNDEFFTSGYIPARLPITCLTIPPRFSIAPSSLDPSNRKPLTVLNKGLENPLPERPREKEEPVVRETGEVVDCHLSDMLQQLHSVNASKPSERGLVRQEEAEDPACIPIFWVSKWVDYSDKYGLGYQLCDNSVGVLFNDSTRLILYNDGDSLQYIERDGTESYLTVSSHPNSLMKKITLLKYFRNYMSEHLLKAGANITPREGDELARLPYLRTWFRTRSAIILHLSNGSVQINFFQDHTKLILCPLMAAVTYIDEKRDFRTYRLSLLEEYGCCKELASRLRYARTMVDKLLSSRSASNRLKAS

[29] = test system: ROCK2 (rat); conditions: accession and sequence are those of the human protein
[30] = biological target: RPS6KA1 KD1 KD2 (human) (UniProt Q15418)
Sequence of RPS6KA1 KD1 KD2 (human) (Q15418 whole entry, looked up): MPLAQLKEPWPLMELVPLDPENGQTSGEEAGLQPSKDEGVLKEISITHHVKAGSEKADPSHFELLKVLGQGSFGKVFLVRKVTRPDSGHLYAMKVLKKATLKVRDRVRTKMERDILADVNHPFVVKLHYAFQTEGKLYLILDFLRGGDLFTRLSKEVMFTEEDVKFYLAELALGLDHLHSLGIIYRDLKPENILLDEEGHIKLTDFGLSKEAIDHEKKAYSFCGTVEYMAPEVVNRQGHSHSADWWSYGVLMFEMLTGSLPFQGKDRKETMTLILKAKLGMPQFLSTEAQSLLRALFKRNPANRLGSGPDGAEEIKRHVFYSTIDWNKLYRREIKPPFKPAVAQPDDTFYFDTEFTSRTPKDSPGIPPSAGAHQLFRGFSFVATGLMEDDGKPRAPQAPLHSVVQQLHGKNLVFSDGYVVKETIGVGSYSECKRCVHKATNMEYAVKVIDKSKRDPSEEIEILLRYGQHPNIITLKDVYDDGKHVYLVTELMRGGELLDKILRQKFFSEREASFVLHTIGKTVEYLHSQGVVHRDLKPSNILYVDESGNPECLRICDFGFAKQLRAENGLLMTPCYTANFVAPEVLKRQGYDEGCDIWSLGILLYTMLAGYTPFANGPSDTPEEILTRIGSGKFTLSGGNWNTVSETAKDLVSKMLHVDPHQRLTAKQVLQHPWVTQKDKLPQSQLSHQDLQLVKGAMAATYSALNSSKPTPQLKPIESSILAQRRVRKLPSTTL

[31] = biological target: RPS6KA3 KD1 KD2 (human) (UniProt P51812)
[32] = test system: RPS6KB1 (human), P23443 [T412E]
[33] = test system: SGK1 (human), O00141 [S422D]
[34] = biological target: STK3 (human) (UniProt Q13188)
[35] = biological target: TBK1 (human) (UniProt Q9UHD2); conditions: compound 10.0 µM

Sequence of BRSK2 (human) (Q8IWQ3 whole entry, looked up): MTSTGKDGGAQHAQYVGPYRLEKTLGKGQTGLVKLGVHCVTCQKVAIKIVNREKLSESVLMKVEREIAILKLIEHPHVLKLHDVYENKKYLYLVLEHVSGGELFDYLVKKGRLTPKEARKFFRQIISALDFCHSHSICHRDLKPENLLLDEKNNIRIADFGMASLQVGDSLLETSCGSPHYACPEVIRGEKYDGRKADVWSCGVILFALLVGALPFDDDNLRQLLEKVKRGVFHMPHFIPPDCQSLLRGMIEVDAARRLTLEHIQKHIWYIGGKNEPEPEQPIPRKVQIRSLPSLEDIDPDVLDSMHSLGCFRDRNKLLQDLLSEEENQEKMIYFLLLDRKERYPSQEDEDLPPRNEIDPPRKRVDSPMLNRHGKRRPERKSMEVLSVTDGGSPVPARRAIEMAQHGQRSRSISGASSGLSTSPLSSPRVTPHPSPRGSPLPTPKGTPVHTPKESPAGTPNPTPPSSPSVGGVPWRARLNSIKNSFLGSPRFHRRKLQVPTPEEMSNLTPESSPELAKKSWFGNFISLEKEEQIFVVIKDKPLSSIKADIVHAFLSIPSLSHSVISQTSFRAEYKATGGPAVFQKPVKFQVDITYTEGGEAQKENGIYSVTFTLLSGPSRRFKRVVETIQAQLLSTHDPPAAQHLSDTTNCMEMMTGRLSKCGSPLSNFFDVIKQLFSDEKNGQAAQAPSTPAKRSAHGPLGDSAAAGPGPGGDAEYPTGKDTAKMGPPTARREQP
Sequence of CSNK2A1 (human) (P68400 whole entry, looked up): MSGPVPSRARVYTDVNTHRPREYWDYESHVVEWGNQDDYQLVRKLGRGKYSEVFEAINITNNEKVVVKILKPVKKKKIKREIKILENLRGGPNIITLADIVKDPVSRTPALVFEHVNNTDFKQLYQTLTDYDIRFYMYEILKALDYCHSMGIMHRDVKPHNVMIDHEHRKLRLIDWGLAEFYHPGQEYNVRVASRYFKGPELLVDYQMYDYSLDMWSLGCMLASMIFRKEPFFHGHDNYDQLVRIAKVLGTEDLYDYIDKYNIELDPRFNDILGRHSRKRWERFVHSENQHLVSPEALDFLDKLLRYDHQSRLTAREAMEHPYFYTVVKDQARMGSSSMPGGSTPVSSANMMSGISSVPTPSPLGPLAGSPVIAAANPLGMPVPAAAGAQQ

Oc1ccc(/C=C/c2cc(O)cc(O)c2)cc1
residual activity ([1]; compound 1.0 µM): 82% | residual activity ([1]; compound 10.0 µM): 89% | residual activity ([1]; compound 50.0 µM): 63% | residual activity ([2]; compound 1.0 µM): 54% | residual activity ([2]; compound 10.0 µM): 50% | residual activity ([2]; compound 50.0 µM): 13% | residual activity [3]: 55% | residual activity ([4]; compound 1.0 µM): 101% | residual activity ([4]; compound 10.0 µM): 82% | residual activity ([4]; compound 50.0 µM): 49% | residual activity [5]: 62% | residual activity ([6]; compound 1.0 µM): 94% | residual activity ([6]; compound 10.0 µM): 61% | residual activity ([6]; compound 50.0 µM): 17% | residual activity ([7]; compound 1.0 µM): 38% | residual activity ([7]; compound 10.0 µM): 8% | residual activity ([7]; compound 50.0 µM): 2% | residual activity [8]: 88% | residual activity ([9]; compound 1.0 µM): 99% | residual activity ([9]; compound 10.0 µM): 70% | residual activity ([9]; compound 50.0 µM): 46% | residual activity [10]: 59% | residual activity [11]: 73% | residual activity [12]: 87% | residual activity [13]: 35% | residual activity [14]: 83% | residual activity ([15]; compound 1.0 µM): 112% | residual activity ([15]; compound 10.0 µM): 93% | residual activity ([15]; compound 50.0 µM): 108% | residual activity ([16]; compound 1.0 µM): 106% | residual activity ([16]; compound 10.0 µM): 78% | residual activity ([16]; compound 50.0 µM): 65% | residual activity ([17]; compound 1.0 µM): 95% | residual activity ([17]; compound 10.0 µM): 97% | residual activity ([17]; compound 50.0 µM): 75% | residual activity ([18]; compound 1.0 µM): 101% | residual activity ([18]; compound 10.0 µM): 88% | residual activity ([18]; compound 50.0 µM): 92% | residual activity ([19]; compound 1.0 µM): 96% | residual activity ([19]; compound 10.0 µM): 108% | residual activity ([19]; compound 50.0 µM): 101% | residual activity ([20]; compound 1.0 µM): 121% | residual activity ([20]; compound 10.0 µM): 64% | residual activity ([20]; compound 50.0 µM): 97% | residual activity ([21]; compound 1.0 µM): 105% | residual activity ([21]; compound 10.0 µM): 85% | residual activity ([21]; compound 50.0 µM): 56% | residual activity ([22]; compound 1.0 µM): 74% | residual activity ([22]; compound 10.0 µM): 96% | residual activity ([22]; compound 50.0 µM): 34% | residual activity [23]: 67% | residual activity ([24]; compound 1.0 µM): 85% | residual activity ([24]; compound 10.0 µM): 80% | residual activity ([24]; compound 50.0 µM): 67% | residual activity ([25]; compound 1.0 µM): 50% | residual activity ([25]; compound 10.0 µM): 30% | residual activity ([25]; compound 50.0 µM): 4% | residual activity ([26]; compound 1.0 µM): 78% | residual activity ([26]; compound 10.0 µM): 37% | residual activity ([26]; compound 50.0 µM): 27% | residual activity ([27]; compound 1.0 µM): 48% | residual activity ([27]; compound 10.0 µM): 44% | residual activity ([27]; compound 50.0 µM): 2% | residual activity ([28]; compound 1.0 µM): 90% | residual activity ([28]; compound 10.0 µM): 87% | residual activity ([28]; compound 50.0 µM): 78% | residual activity ([29]; compound 1.0 µM): 125% | residual activity ([29]; compound 10.0 µM): 83% | residual activity ([29]; compound 50.0 µM): 21% | residual activity ([30]; compound 1.0 µM): 77% | residual activity ([30]; compound 10.0 µM): 63% | residual activity ([30]; compound 50.0 µM): 15% | residual activity ([31]; compound 1.0 µM): 77% | residual activity ([31]; compound 10.0 µM): 72% | residual activity ([31]; compound 50.0 µM): 18% | residual activity ([32]; compound 1.0 µM): 93% | residual activity ([32]; compound 10.0 µM): 69% | residual activity ([32]; compound 50.0 µM): 15% | residual activity ([33]; compound 1.0 µM): 79% | residual activity ([33]; compound 10.0 µM): 94% | residual activity ([33]; compound 50.0 µM): 23% | residual activity ([34]; compound 1.0 µM): 84% | residual activity ([34]; compound 10.0 µM): 69% | residual activity ([34]; compound 50.0 µM): 28% | residual activity [35]: 79%
